Assay results: patent publication US20220168391A1, “USE OF EPIDERMAL GROWTH FACTOR IN DIABETIC FOOT ULCER TREATMENT” (Centro de Ingeniería Genética y Biotecnología, priority 2019, published 2022)

Experiments:
[1] = test system: patients of DFU with amputation criteria of the affected limb; experiment: Example 3: healing of DFU after intralesional rhEGF at different doses, three times a week then once a week, versus three times a week control; type: in vivo, human; conditions: for Closure of the lesion (%) / Closure of the lesion, number of patients: three times a week then once a week, during follow-up; for Complete granulation response (%) / Complete granulation response, number of patients: at 8 weeks
Experimental: The route of administration was always the intralesional one. […] The doses administered per group were 2.5 μg, 25 μg, 50 μg and 75 μg. Seven patients were incorporated into the group that received 2.5 μg, 10 patients to the group that received the 25 μg dose; 13 patients to the group that received 50 μg and 18 patients in the group of 75 μg.
On the other hand, there was a group of 93 patients who were treated, during the whole period, with the dose of 75 μg three times a week. The period of treatment was 8 weeks.
Patients in all groups continued receiving the conventional therapy, which was performed according to the DFU standard treatment established by the National Angiology Group of Cuba, as summarized in Example 1.

[2] = Example 2: pharmacokinetic study, rhEGF levels in plasma of DFU patients after intralesional administration (ELISA); type: in vivo, human; conditions: for Amount of rhEGF remaining in the area of the ulcer: bioavailability analysis; for AUC / t½: intralesional, plasma, immediately after the first administration
Experimental: A pharmacokinetic study was carried out, starting from blood samples taken from 31 patients. […] The most important parameters evaluated were the ‘Area under the Curve’ (AUC) and the half-life time (t½) among others. […] The treatment was performed for 8 weeks, or less time if the ulcer area reached a measure equal or less than 1 cm^2.
For the quantitation of this growth factor, the instructions of the kit manufacturer were followed.

patients with DFU [3] = experiment: Example 1: intralesional rhEGF in three treatment regimes, granulation, lesion closure and amputations in DFU patients; type: in vivo, human
Experimental: To do so, the reconstitution and dilution of the vial containing the drug was performed with 5 mL of water for injection. The administrations were made until 100% granulation of lesion, the closure of the lesion by grafting, or when a maximum of 8 weeks of treatment was attained.
Patients belonging to group 3 received the drug (75 μg/dose) three times a week, during the first week, by intralesional route. From the second week onward, the treatment continued with a dose of 225 μg, once a week. The treatment period was 8 weeks, although it was shorter if the complete closure of the lesion occurred earlier or if the ulcer reached a size smaller than 1 cm^2.
The formulated product was lyophilized in vials containing 25 μg or 75 μg of the active pharmaceutical ingredient. The composition also contained pharmaceutically acceptable excipients, such as stabilizers and pH regulators.
Patients in all three groups continued receiving conventional therapy, which was performed according to the DFU treatment standards established by the National Angiology Group of Cuba. This consists of: offloading of the lesion, metabolic control of the underlying disease with insulin (which replaces oral hypoglycemic agents), washing of the lesion with saline solution and mild soap substances, debridement, application of sterile dressings with gauze bandage, and antimicrobials, depending on the type of infectious germ present in the lesion.
The area of the DFU and the percentage of granulation were measured by a commercial system created for these purposes (Visitrak™, Smith & Nephew), which consists of grid transparent films and a device to measure the lesion by planimetry. This system has been previously validated (Sugama J, et al. J Clin Nurs 2007; 16 (7): 1265-1269). Using a permanent marker, the tracing of the contours of the lesion and the granulated regions, on the grid transparent film, was conducted.

DFU = conditions: approved lyophilized medicament, intralesional; highest reduction in less complicated ulcers; cited from earlier work
patients with DFU [4] = experiment: Example 5: case reports, injectable rhEGF once a week in DFU patients with no criteria for amputation; type: in vivo, human; conditions: 75 μg once a week for two weeks
Excerpt: The size of the lesion, after debridement, was 10 cm^2.
The ulcer base was covered with more than 75% of useful granulation tissue. The ulcer size was 7 cm^2.

[5] = test system: DFU patients with no amputation criteria of the limb; experiment: Example 4: healing of DFU after intralesional rhEGF once a week plus conventional therapy; type: in vivo, human
Experimental: The intralesional treatment with this growth factor was performed once a week, for 8 weeks, or for less time, if the lesion closed up to a dimension equal to or less than 1 cm^2. Another group of patients received conventional therapy only, with the difference that the procedure was performed three times a week, until the complete closure of the lesion was achieved.
The patients in these series had no amputation criteria of the limb affected by the DFU at the time of the initial evaluation. […] As mentioned before, conventional therapy in all patients was performed according to the standards of treatment for DFU established by the National Angiology Group of Cuba.

[6] = 25 μg three times a week then once a week, n = 10
[7] = 50 μg three times a week then once a week, n = 13, at 3 weeks
[8] = 75 μg three times a week then once a week, n = 18
[9] = Control Group: 75 μg three times a week for 8 weeks, n = 93, at 3 weeks
[10] = Control Group: 75 μg three times a week for 8 weeks, n = 93
[11] = Group 1: 75 μg/dose three times a week, n = 45
[12] = Group 2: 25 μg/dose three times a week intralesional, n = 45, at 3 weeks
[13] = Group 2: 25 μg/dose three times a week, n = 45
[14] = Group 2: 25 μg/dose three times a week, n = 45, end of treatment
[15] = Group 3: 75 μg three times a week first week, then 225 μg once a week, n = 25
[16] = Group 3: 75 μg three times a week first week, then 225 μg once a week, n = 25, end of treatment
[17] = Group 3: 75 μg three times a week in first week, then 225 μg once a week, n = 25, at 3 weeks
[18] = 2.5 μg once a week plus conventional therapy, n = 10, between 8 and 12 weeks
[19] = 25 μg once a week plus conventional therapy, n = 15, between 8 and 12 weeks
[20] = 50 μg once a week plus conventional therapy, n = 15, between 8 and 12 weeks
[21] = 75 μg once a week plus conventional therapy, n = 20, between 8 and 12 weeks

## recombinant human Epidermal Growth Factor [rhEGF]
[1]; 2.5 μg group
  Closure of the lesion (%): 57%
  Closure of the lesion, number of patients: 4
[1]; 2.5 μg three times a week then once a week, n = 7, at 3 weeks
  Objective granulation response (%): (57%)
[1]; 2.5 μg three times a week then once a week, n = 7
  Complete granulation response (%): (71%)
[1]; 2.5 μg three times a week until no amputation criterion, then once a week, n = 7, ≥75% of lesion area granulated at 3 weeks
  Objective granulation response, number of patients: 4
[1]; 25 μg three times a week then once a week, n = 10, at 3 weeks
  Objective granulation response, number of patients: 6
[1]; [6]
  Complete granulation response (%): (70%)
  Complete granulation response, number of patients: 7
[1]; 50 μg group
  Closure of the lesion (%): 69%
  Closure of the lesion, number of patients: 9
[1]; [7]
  Objective granulation response (%): (61%)
  Objective granulation response, number of patients: 8
[1]; 50 μg three times a week then once a week, n = 13
  Complete granulation response (%): (77%)
[1]; 75 μg group
  Closure of the lesion (%): 72%
[1]; 75 μg three times a week then once a week, n = 18, at 3 weeks
  Objective granulation response (%): (72%)
[1]; [8]
  Complete granulation response (%): (83%)
  Complete granulation response, number of patients: 15
[1]; [9]
  Objective granulation response (%): (77%)
  Objective granulation response, number of patients: 72
[1]; [10]
  Complete granulation response (%): (85%)
  Complete granulation response, number of patients: 79
[1]; control group, 75 μg three administrations per week
  Closure of the lesion (% of the patients): 81%
[1]; new treatment schedule (three times a week then once a week) along with conventional therapy
  Reduction in the risk of amputation: more than 80%
[1]; the four groups that differed in the rhEGF dose and the control group
  Amputations: below 12%
[2]; 25 μg dose
  Amount of rhEGF remaining in the area of the ulcer: about 19 μg
  AUC: 0.0851 ± 0.0502 ng·h/mL
  t½: 51 ± 46.8 min
[2]; 75 μg dose
  Amount of rhEGF remaining in the area of the ulcer: ~58 µg
  AUC: 0.1978 ± 0.0739 ng·h/mL
  t½: 39.6 ± 10.8 min
[2]; 225 μg dose
  Amount of rhEGF remaining in the area of the ulcer: around 63 μg
  AUC: 0.2886 ± 0.0894 ng·h/mL
  t½: 45 ± 12.6 min
[2]; independently of the dose received (25, 75, 225 μg)
  Plasma rhEGF value after two hours of sample collection: returned to baseline levels
Patients with DFU [3]; Group 1: 75 μg/dose three times a week intralesional, n = 45, at 3 weeks
  Granulation Objective Response CR*+PR* (%): 75%
Patients with DFU [3]; Group 1: 75 μg/dose three times a week intralesional, n = 45, at 3 weeks (>50% of lesion area covered by granulation tissue)
  Granulation Objective Response CR*+PR*, number of patients: 34
Patients with DFU [3]; [11]
  Amputations, number of patients: 6
  Lesion Closure, number of patients: 34
Patients with DFU [3]; Group 1: 75 μg/dose three times a week, n = 45, end of treatment
  Granulation Complete Response CR (%): 80%
Patients with DFU [3]; Group 1: 75 μg/dose three times a week, n = 45, end of treatment (100% of lesion area granulated)
  Granulation Complete Response CR, number of patients: 36
Patients with DFU [3]; [12]
  Granulation Objective Response CR*+PR* (%): 64%
  Granulation Objective Response CR*+PR*, number of patients: 29
Patients with DFU [3]; [13]
  Amputations (%): 22%
  Lesion Closure, number of patients: 27
Patients with DFU [3]; [14]
  Granulation Complete Response CR (%): 69%
  Granulation Complete Response CR, number of patients: 31
Patients with DFU [3]; [15]
  Amputations, number of patients: 3
  Lesion Closure, number of patients: 18
Patients with DFU [3]; [16]
  Granulation Complete Response CR (%): 76%
  Granulation Complete Response CR, number of patients: 19
Patients with DFU [3]; [17]
  Granulation Objective Response CR*+PR* (%): 68%
  Granulation Objective Response CR*+PR*, number of patients: 17
DFU
  Reduction of amputation rates: ≥ 70%
Patients with DFU [4]; Patient A, 10 cm^2 superficial lesion, after said time
  Lesion closure, Patient A: complete closure of the lesion was attained
Patients with DFU [4]; Patient B, 7 cm^2 deep lesion
  Time to closure of the lesion after the first application, Patient B: 9 weeks
Patients with DFU [4]; Patient B, 7 cm^2 deep lesion, after said time
  Granulation response, Patient B: complete granulation response was obtained
[5]; [18]
  Closure of the Lesion No (%): (40%)
  Closure of the Lesion No, number of patients: 4
[5]; 2.5 μg once a week plus conventional therapy, n = 10, between 8 and 12 weeks after commencement
  Closure of the Lesion Yes, number of patients: 6
[5]; [19]
  Closure of the Lesion No (%): (33%)
  Closure of the Lesion Yes (%): (67%)
[5]; [20]
  Closure of the Lesion No (%): (40%)
  Closure of the Lesion No, number of patients: 6
  Closure of the Lesion Yes, number of patients: 9
[5]; [21]
  Closure of the Lesion No, number of patients: 4
  Closure of the Lesion Yes (%): (80%)
  Closure of the Lesion Yes, number of patients: 16
